Results from patent US6034069A, “3-'N-modified 6-O-substituted erythromycin ketolide derivatives having antibacterial activity” (priority 1998, dated 2000).

Tests used:
Escherichia coli DC-2 = experiment: in vitro antibacterial activity, agar dilution MIC; format: cell-based; settings: Organism code SS; BHI agar, 35-37° C., 20 to 24 hours
Description: (§1) Representative compounds of the present invention were assayed in vitro for antibacterial activity as follows: Twelve petri dishes containing successive aqueous dilutions of the test compound mixed with 10 mL of sterilized Brain Heart Infusion (BHI) agar (Difco 0418-01-5) were prepared. Each plate was inoculated with 1:100 (or 1:10 for slow-growing strains, such as Micrococcus and Streptococcus) dilutions of up to 32 different microorganisms, using a Steers replicator block. […] In addition, a control plate, using BHI agar containing no test compound, was prepared and incubated at the beginning and end of each test.
(§2) An additional plate containing a compound having known susceptibility patterns for the organisms being tested and belonging to the same antibiotic class as the test compound was also prepared and incubated as a further control, as well as to provide test-to-test comparability.
(§3) After incubation, each plate was visually inspected. The minimum inhibitory concentration (MIC) was defined as the lowest concentration of drug yielding no growth, a slight haze, or sparsely isolated colonies on the inoculum spot as compared to the growth control.

[1] = system: Streptococcus Pheumoniae 5979; experiment: in vitro antibacterial activity, agar dilution MIC; format: cell-based; settings: Organism code ZZ; BHI agar, 35-37° C., 20 to 24 hours
Description: as §1, §2, §3

SMILES | minimum inhibitory concentration (MIC) (Escherichia coli DC-2) | minimum inhibitory concentration (MIC) [1]
CC[C@H]1OC(=O)[C@H](C)C(=O)[C@H](C)[C@@H](O[C@@H]2O[C@H](C)C[C@H](N(C)CCF)[C@H]2O)[C@](C)(OCC=Cc2cnc3ccccc3c2)C[C@@H](C)C(=O)[C@H](C)[C@H]2NC(=O)O[C@@]21C [Example 7] | > 100 | –
CC[C@H]1OC(=O)[C@H](C)C(=O)[C@H](C)[C@@H](O[C@@H]2O[C@H](C)C[C@H](N(C)CC#N)[C@H]2O)[C@](C)(OCC=Cc2cnc3ccccc3c2)C[C@@H](C)C(=O)[C@H](C)[C@H]2NC(=O)O[C@@]21C [Example 9] | – | 128
CC[C@H]1OC(=O)[C@H](C)C(=O)[C@H](C)[C@@H](O[C@@H]2O[C@H](C)C[C@H](N(C)Cc3cccnc3)[C@H]2O)[C@](C)(OCC=Cc2cnc3ccccc3c2)C[C@@H](C)C(=O)[C@H](C)[C@H]2NC(=O)O[C@@]21C [Example 14] | – | > 128
CC[C@H]1OC(=O)[C@H](C)C(=O)[C@H](C)[C@@H](O[C@@H]2O[C@H](C)C[C@H](N(C)CC3CC3)[C@H]2O)[C@](C)(OCC=Cc2cnc3ccccc3c2)C[C@@H](C)C(=O)[C@H](C)[C@H]2NC(=O)O[C@@]21C [Example 15] | – | > 128
CCCN(C)[C@H]1C[C@@H](C)O[C@@H](O[C@@H]2[C@@H](C)C(=O)[C@@H](C)C(=O)O[C@H](CC)[C@@]3(C)OC(=O)N[C@@H]3[C@@H](C)C(=O)[C@H](C)C[C@@]2(C)OCC=Cc2cnc3ccccc3c2)[C@@H]1O [Example 16] | – | 128
C=C(CN(C)[C@H]1C[C@@H](C)O[C@@H](O[C@@H]2[C@@H](C)C(=O)[C@@H](C)C(=O)O[C@H](CC)[C@@]3(C)OC(=O)N[C@@H]3[C@@H](C)C(=O)[C@H](C)C[C@@]2(C)OCC=Cc2cnc3ccccc3c2)[C@@H]1O)C(=O)OC [Example 18] | – | 128
C=C(C)CN(C)[C@H]1C[C@@H](C)O[C@@H](O[C@@H]2[C@@H](C)C(=O)[C@@H](C)C(=O)O[C@H](CC)[C@@]3(C)OC(=O)N[C@@H]3[C@@H](C)C(=O)[C@H](C)C[C@@]2(C)OCC=Cc2cnc3ccccc3c2)[C@@H]1O [Example 19] | – | 128
